In patent US9132198B2, “Mitochondrial penetrating peptides as carriers for anticancer compounds” (priority 2011, dated 2015):
Entries after “also recorded” stand apart in the source; their conditions may differ. Non-standard residues stand in square brackets, D forms with d. Residues, ends and D or L forms follow the SMILES beside them. *: point of attachment. Chlorambucil = O=C(CCCc1ccc(N(CCCl)CCCl)cc1)*; Cha = N[C@@H](CC1CCCCC1)C(=O)O

Experiments:
[1] = immunogold TEM, mouse liver mitochondria
Description: Mitochondria were isolated from fresh mouse liver as previously described^1. Functionality was confirmed using respirometry. The isolated organelles were used only when the levels of oxygen consumption in state III respiration (presence of ADP) were >4 fold greater than in state II respiration, indicating well-coupled mitochondria. Mitochondrial protein concentration was determined by BCA assay (Sigma). […] Cold PBS was added and mitochondria were pelleted by centrifugation. The pellet was fixed in 1% glutaraldehyde in PBS for 90 min at room temperature, washed with PBS, then fixed with 1% osmium tetroxide for 2 hr at 4° C. The pellets were dehydrated using graded ethanol, followed by stepwise infiltration with propylene oxide and Epon-Araldite resin. The pellets were cured in resin for 48 hr at 60° C. The blocks were sectioned to 60 nm and the sections adhered to nickel grids for 30 min at 60° C. The grids were floated on saturated aqueous sodium metaperiodate for an hour at room temperature, washed, then blocked with 1% BSA, and labeled with Anti-biotin (Jackson Immunolabs) followed by Protein A-gold (Aurion, 10 nm). The grids were rinsed with water and stained with 2% uranyl acetate for 5 minutes. To quantitate gold labeling, 200 gold particles (for more densely labeled samples) or 400 mitochondria (for less densely labeled samples) were counted for each counting event. […]

A2780 wildtype cells = assay: Annexin V apoptosis assay, A2780 wild-type; type: cell-based; conditions: A2780 wild-type line
[2] = Colorimetric alkylation assay; type: biochemical; conditions: absorbance of 4-NBP upon alkylation
Description: Alkylation was tested using 4-(4-Nitrobenzyl)pyridine (4-NBP) (Thomas, et al., 1992). Briefly, compound (200-450 μM) was incubated with 4-NBP (0.7% w/vol) in a buffer containing 85 mM triethanolamine (pH 7.2) and 43% acetone. Reactions were incubated at 37° C. for 30-120 min. Reactions were terminated by freezing in a dry ice/ethanol bath. To develop samples, […] ethyl acetate and 25 μl 5N NaOH were added followed by vortexing. Absorbance of organic ethyl acetate was read at 540 nm.

CLL patient cells [3] = assay: Annexin V/Sytox Red viability of CLL patient cells versus healthy donor cells; type: cell-based, human; conditions: LC25 and LC50; PBSCs and mononuclear cells of healthy donors as comparison
HL60 cells [4] = assay: Analysis of toxicity, CCK-8 viability, leukemia panel: HL60; conditions: for LC25 dose: HL60 cells
[5] = system: 17.7 kb nuclear DNA segment (β-globin gene) in HL60 cells; assay: DNA lesion frequency by quantitative PCR, nuclear DNA; type: cell-based; conditions: HL60, Cbl 150 μM or mt-Cbl 3 μM, 2 hr
Description: (§1) A total of 5×10^6 HL60 cells were treated with Cbl (150 μM) or mt-Cbl (3 μM) for 2 hr. DNA was isolated from frozen cell pellets with the QIAGEN Genomic Tip and Genomic DNA Buffer Set Kit (QIAGEN) and quantified using the PicoGreen dye (Invitrogen). Quantitative amplification of the 8.9 kb mitochondrial segment and the 17.7 kb β-globin target sequence was performed using the GeneAmp XL PCR kit (Perkin-Elmer) as described previously^31. Lesion frequency at a given dose, D, was calculated as D=−In AD/AC, where AD is the amplification at the dose, and AC is the level of amplification in nondamaged controls.

HL60 cells [6] = assay: Quantitative real-time PCR array of DNA damage signaling genes; type: cell-based, human; conditions: for DDIT3/GADD153 change in expression: vs untreated cells
HeLa cells [7] = assay: Mitochondrial membrane potential (JC-1, flow cytometry); type: cell-based; conditions: 1 hour treatment
Description: HeLa cells were seeded at 50,000 cells per well 24 hours prior to experiment. CLL patient samples, PBSCs and healthy donor B cells were seeded at 200,000 cells per well in triplicate in a 24-well plate in Iscove's media. Cells were then incubated with 2 μM of 5,5′,6,6′-tetrachloro-1,1′,3,3′-tetraethylbenzimidazolylcarbocyanine iodide (JC-1, Invitrogen, Carlsbad) for 20 minutes at 37° C. Each sample was then washed twice with 1 mL PBS and resuspended in 300 μL PBS prior to being read on a BD FACS Canto. Samples were excited at 488 nm and emission was collected at 526 nm (green) and 595 nm (red). To obtain the mitochondrial membrane potential (red/green), emission from the red channel was divided by emission from the green channel. For membrane depolarization studies, HeLa cells were treated with Cbl or MPP-Cbl for 1 hour in OPTI-MEM (Invitrogen, Carlsbad) prior to incubation with JC-1. Cells were washed with PBS, trypsinized and analyzed as above.

HeLa cells [8] = assay: Analysis of toxicity, CCK-8 viability, HeLa; type: cell-based
pBR322DNA = assay: Crosslinking of isolated DNA; type: biochemical; conditions: 2-200 μM
Description: Crosslinking of isolated pBR322DNA was determined from a modification of a published method.^30 Briefly, pBR322DNA was incubated with compounds at concentrations and times indicated in 25 mM triethanolamine (pH 7.2) and 1 mM EDTA. Reactions were terminated by the addition of 50 mM EDTA and 150 μg/ml excess short oligonucleotide DNA. Samples were denatured at 95° C. in denaturation buffer (30% DMSO, 1 mM EDTA, bromophenol blue, xylene cyanol, and 0.4% SDS) for 3 min and flash frozen in a dry ice/ethanol bath. Electrophoresis was carried out in 0.8% agarose in TAE buffer and stained post-run with ethidium bromide.

[9] = system: A2780 Cbl-resistant cells; assay: Annexin V apoptosis assay, A2780 Cbl-resistant; type: cell-based; conditions: A2780 Cbl-resistant line
[10] = system: red blood cells (healthy donors); assay: Hemolysis assay; type: cell-based, human; conditions: RBCs of healthy donors, at concentrations used (LC25, LC50)
Description: Red blood cells obtained during Ficoll separation of healthy donor peripheral blood was used for this assay. Cells were washed with PBS until the supernatant was clear. Peptide solutions were made in Iscove's media and a 1:2 dilution was made across a 96-well plate. To each well, 2 μl, of red blood cells were added, mixed and then incubated for 1 hour at 37° C. with 5% CO2. For 100% lysis, 0.1% Triton X-100 was added to three wells and for 0% lysis, cells from three wells without peptide were used. Plates were spun at 1000×g for 10 min and 50 μL of supernatant was then transferred to a new plate, mixed with 50 μL of PBS and read at 415 nm.

HL60 cells [11] = assay: Western blots of GADD45G pathway effector proteins (p38, JNK); type: cell-based; conditions: HL60, immunoblotting
Description: Leukemia cells were cultured as above and were washed twice with PBS prior to lysis (10 mM Tris, 200 mM NaCl, 1 mM EDTA (pH 7.4), 1 mM PMSF, 0.5% NP-40, 1% Triton X-100, 1× Protease Inhibitor Cocktail (Bioshop, Burlington, ON)) at 4° C., 30 min. Cells were then centrifuged at 1,200 rcf, 4° C., 5 min and protein levels were quantified using bicinchoninic acid (BCA) assay (Pierce, Rockford). 15 μg of total protein was diluted in 8× sample buffer and heated to 42° C. for 5 min prior to loading on 15% gel. Gels were run at 100 V for 1 h, and then proteins were transferred onto nitrocellulose membrane at 100 V for 40 min. Membranes were blocked with 5% skim milk for 1 hour and then probed with primary antibody according to manufacturer's instructions (1:500 BclXL antibody [Abcam, Cambridge, Mass.], 1:2000 β-actin antibody [Abcam], 1:1000 phospho INK [Abcam], 1:1000 phospho p38 [Abcam], 1:1000 GADD45G [Santa Cruz Biotechnology, Santa Cruz, Calif.], 1:1000 PPP1R15A [Santa Cruz Biotechnology], 1:1000 DNA Ligase III [Santa Cruz Biotechnology], 1:1000 p21 [Santa Cruz Biotechnology], and 1:1000 DDIT3 [Cell Signaling Technology, Beverly, Mass.]). Membranes were then washed and incubated with 1:5000 donkey anti-mouse or goat anti-rabbit IgG-HRP secondary antibody for 1 hr prior to ECL chemiluminescence detection (GE Amersham).

HeLa cells [12] = assay: Analysis of mitochondrial superoxide levels (MitoSOX, flow cytometry); type: cell-based; conditions: 1 hour treatment
Description: HeLa cells were plated at 100,000 per well of a 24-well plate 24 hours prior to experiment and treated with Cbl or MPP-Cbl in OPTI-MEM (Invitrogen, Carlsbad) for 1 hour. Media was removed and cells were incubated with MitoSox (Invitrogen, Carlsbad) according to manufacturer's instructions. Cells were washed with PBS, trypsinized and analyzed via flow cytometry with FACSCanto (BD, Franklin Lakes).

[13] = system: 8.9 kb mitochondrial DNA segment in HL60 cells; assay: DNA lesion frequency by quantitative PCR, mitochondrial DNA; type: cell-based; conditions: HL60, Cbl 150 μM or mt-Cbl 3 μM, 2 hr
Description: as §1

CLL patient cells [14] = assay: Peptide uptake (flow cytometry); type: cell-based, human; conditions: 5 μM thiazole orange-labeled peptide, 15 min; CLL cells vs PBSCs and mononuclear cells
Description: CLL patient samples, PBSCs and healthy donor B cells were seeded at 200,000 cells per well in triplicate in a 24-well plate in Iscove's media. Cells were then incubated with 5 μM thiazole orange-labeled peptide for 15 min, washed with PBS and analyzed on FACSCanto (BD, Franklin Lakes) to determine relative intracellular peptide concentrations.

M2 (OCI-M2) cells = assay: Analysis of toxicity, CCK-8 viability, leukemia panel: M2
LY17 cells = assay: Analysis of toxicity, CCK-8 viability, leukemia panel: LY17; conditions: read-out: LC50
DAUDI cells = assay: Analysis of toxicity, CCK-8 viability, leukemia panel: DAUDI; conditions: Homo sapiens, read-out: LC50
U937 cells = assay: Analysis of toxicity, CCK-8 viability, leukemia panel: U937; conditions: Homo sapiens, U-937, read-out: LC50
AML2 (OCI-AML2) cells = assay: Analysis of toxicity, CCK-8 viability, leukemia panel: AML2; conditions: Homo sapiens, OCI-AML2, read-out: LC50
K562 cells = assay: Analysis of toxicity, CCK-8 viability, leukemia panel: K562
[15] = HL60, LC25 dose, greater with mt-Cbl relative to Cbl alone

Biotin-FxrFxrFxr [Biotin-MPP]
localization within isolated mitochondria [1]: predominantly matrix localization

CC(=O)N[C@@H](CC1CCCCC1)C(=O)N[C@H](CCCNC(=N)N)C(=O)N[C@@H](CC1CCCCC1)C(=O)N[C@H](CCCNC(=N)N)C(=O)N[C@@H](CC1CCCCC1)C(=O)N[C@H](CCCNC(=N)N)C(=O)N[C@H](CCCCNC(=O)CCCc1ccc(N(CCCl)CCCl)cc1)C(N)=O [MPP-Cbl, Ac-FxrFxrFxrk-Cbl] (Ac-[Cha][dR][Cha][dR][Cha][dR][dK](Chlorambucil)-NH2)
concentration inducing cell death (A2780 wildtype cells): 9 µM
reduction of alkylating ability compared to Cbl alone [2]: approximately two fold
selective toxicity to CLL patient cells versus healthy donor cells (CLL patient cells [3]): more selectively toxic to CLL patient samples cells
LC25 dose (HL60 cells [4]): 3 µM
damage of nuclear DNA [5]: minimal effect on the nuclear genome
p21 expression (HL60 cells [6]; HL60, LC25 dose): overexpressed
DDIT3/GADD153 change in expression (HL60 cells [6]; HL60, LC25 dose): no change
GADD45G upregulation (HL60 cells [6]; [15]): 15 fold
PPP1R15A/GADD34 upregulation (HL60 cells [6]; [15]): 4 fold
Ligase III increase in expression (HL60 cells [6]; HL60, LC50 dose, 1 hr): this was detected
depolarization of mitochondrial membrane (HeLa cells [7]): noted upon MPP-Cbl treatment
increase in potency compared to Cbl (HeLa cells [8]; cell viability assay, 24 hours): 100 fold
DNA crosslink formation (pBR322DNA): concentration-dependent crosslink formation
concentration inducing cell death ([9]; value comparable to wild-type): 9 µM
hemolysis [10]: nominal hemolysis levels; also recorded: minimal
activation of p38 or JNK pathways (HL60 cells [11]): activating JNK
increase of mitochondrial superoxide levels (HeLa cells [12]): noted upon MPP-Cbl treatment
damage of mitochondrial DNA [13]: significant reduction of mitochondrial DNA amplification

TO-FxrFxrFxr [to-MPP]
peptide uptake (CLL patient cells [14]): higher levels of peptide uptake in CLL cells

O=C(O)CCCc1ccc(N(CCCl)CCCl)cc1 [Cbl, chlorambucil]
induction of cell death (A2780 wildtype cells): able to induce cell death
CC50 (M2 (OCI-M2) cells; OCI-M2, read-out: LC50): 311 ± 24 µM
resistance to Cbl relative to rest of the cohort (M2 (OCI-M2) cells; OCI-M2 cells): approximately 10 fold
selective toxicity to CLL patient cells versus healthy donor cells (CLL patient cells [3]): more selectively toxic to CLL patient samples cells
CC50 (LY17 cells): 55 ± 7 µM
LC25 dose (HL60 cells [4]): 17 µM
EC50 (HL60 cells [4]; Homo sapiens, HL-60): 34 µM
CC50 (HL60 cells [4]; Homo sapiens, HL-60, read-out: LC50): 34 ± 6 µM
CC50 (DAUDI cells): 27 ± 7 µM
damage of nuclear DNA [5]: primarily damaged nuclear DNA
CC50 (U937 cells): 34 ± 5 µM
p21 expression (HL60 cells [6]; HL60, LC25 dose): overexpressed
DDIT3/GADD153 change in expression (HL60 cells [6]; HL60, LC25 dose): 5 fold
depolarization of mitochondrial membrane (HeLa cells [7]): not with Cbl
DNA crosslink formation (pBR322DNA): concentration-dependent crosslink formation
CC50 (AML2 (OCI-AML2) cells): 28 ± 3 µM
toxicity ([9]; even at 100 μM): insignificant
hemolysis [10]: minimal
activation of p38 or JNK pathways (HL60 cells [11]): activating p38
CC50 (K562 cells; Homo sapiens, K562, read-out: LC50): 306 ± 26 µM
resistance to Cbl relative to rest of the cohort (K562 cells; K562 cells): approximately 10 fold
damage of mitochondrial DNA [13]: very few mitochondrial lesions

Ac-FxrFxrFxr [MPP]
toxicity (HeLa cells [8]; concentration range tested): did not show appreciable toxicity
